Assay results taken from patent US9023789B2, “Amylin analogs and pharmaceutical compositions thereof” (Novo Nordisk A/S, priority 2012, dated 2015).
Like-named read-outs stand apart in the source and are kept apart here.

What was measured:
rat calcitonin receptor = biological target: T1, rat calcitonin receptor (Rattus norvegicus, UniProt P32214); assay: ASSAY (VIII) binding to the rat calcitonin receptor; conditions: Table 7, read-out: rCTR bind IC50
T1 construct: expressed in transfected cells; host or cells: BHK tk'ts 13 (transient, FuGENE 6), membranes
T1 sequence (P32214 25-479 isoform P32214-2 limits assumed): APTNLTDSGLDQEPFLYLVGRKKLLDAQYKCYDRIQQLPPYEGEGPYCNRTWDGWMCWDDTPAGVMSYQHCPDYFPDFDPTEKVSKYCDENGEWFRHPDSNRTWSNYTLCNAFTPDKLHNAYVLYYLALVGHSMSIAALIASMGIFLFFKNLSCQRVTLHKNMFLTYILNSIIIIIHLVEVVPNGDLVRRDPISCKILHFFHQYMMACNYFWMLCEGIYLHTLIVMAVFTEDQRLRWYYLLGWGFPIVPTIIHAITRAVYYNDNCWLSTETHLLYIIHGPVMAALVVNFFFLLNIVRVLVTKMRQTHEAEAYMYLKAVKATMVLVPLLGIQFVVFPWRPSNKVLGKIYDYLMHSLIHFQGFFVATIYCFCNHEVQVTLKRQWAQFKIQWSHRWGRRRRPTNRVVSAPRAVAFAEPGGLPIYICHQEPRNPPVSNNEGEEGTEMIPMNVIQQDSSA
Experimental: Assay (VIII)—Determination of Binding to the Rat Calcitonin Receptor
The BHK tk′ts 13 cells were transiently transfected with rat calcitonin receptor using FuGENE® 6 (Roche), according to the manufacturer's recommendations. Cells were grown in DMEM with 10% FBS and 1% Pen/Strep. Approximately 48 hours after transfection, the cells were harvested and membranes were prepared.

[1] = ASSAY (IV) determination of solubility; assay type: physicochemical
Experimental: Assay (IV)—Determination of Solubility
The polypeptide was dissolved in water at −500 nmol/ml and mixed 1:1 with a series of buffers (100 mM glycylglycine pH 3.0, 100 mM glycylglycine pH 4.0, 100 mM glycylglycine pH 5.0, 100 mM bistrispropane pH 6.0, 100 mM bistrispropane pH 6.5, 100 mM bistrispropane pH 7.0, 100 mM bistrispropane pH 7.5, 100 mM bistrispropane pH 8.0). After 18 hours at room temperature the samples were centrifuged and the polypeptide concentration determined by UPLC.

[2] = biological target: T2, human amylin receptor (membranes from Amylin 3(a)/CRE-luc cells) (Homo sapiens, UniProt O60896+P30988); assay: ASSAY (V) binding to the human amylin receptor (SPA, 125I-rat amylin);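 note: competition binding of cell membranes (35 ng/µL) mixed with SPA beads in 384-well plates at 40 µL total volume, read by scintillation counting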
T2 construct: expressed in transfected cells
T2 sequence (P30988 25-474): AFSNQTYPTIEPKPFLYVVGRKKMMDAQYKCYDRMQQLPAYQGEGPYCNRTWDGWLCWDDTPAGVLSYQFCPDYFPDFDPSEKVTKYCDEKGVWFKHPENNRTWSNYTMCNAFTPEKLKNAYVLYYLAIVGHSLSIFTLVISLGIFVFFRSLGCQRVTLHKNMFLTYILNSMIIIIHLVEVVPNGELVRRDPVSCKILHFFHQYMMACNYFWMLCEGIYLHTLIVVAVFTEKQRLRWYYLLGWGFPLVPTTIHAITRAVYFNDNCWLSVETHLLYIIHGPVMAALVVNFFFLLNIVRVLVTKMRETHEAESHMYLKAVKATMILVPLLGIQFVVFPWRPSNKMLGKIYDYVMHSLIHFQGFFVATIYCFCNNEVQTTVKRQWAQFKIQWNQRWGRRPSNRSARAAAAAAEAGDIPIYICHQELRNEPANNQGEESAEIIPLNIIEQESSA
T2 sequence (O60896 24-148 partner): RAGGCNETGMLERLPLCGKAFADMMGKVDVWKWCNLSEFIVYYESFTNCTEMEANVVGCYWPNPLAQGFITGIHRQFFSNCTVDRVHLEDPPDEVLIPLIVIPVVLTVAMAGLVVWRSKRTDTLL

[3] = ASSAY (III) ThT fibrillation assay for physical stability; assay type: physicochemical
Excerpt: Assay (III)—ThT Fibrillation Assays for the Assessment of Physical Stability of Protein Formulations Low physical stability of a polypeptide may lead to amyloid fibril formation, which is observed as well-ordered, thread-like macromolecular structures in the sample eventually resulting in gel formation. This has traditionally been measured by visual inspection of the sample. However, that kind of measurement is very subjective and depending on the observer. Therefore, the application of a small molecule indicator probe is much more advantageous. Thioflavin T (ThT) is such a probe and has a distinct fluorescence signature when binding to fibrils [Naiki et al. (1989) Anal. […] LeVine (1999) Methods. Enzymol. […], 274-284]. The time course for fibril formation can be described by a sigmoidal curve with the following expression [Nielsen et al. (2001) Biochemistry 40, 6036-6046]; […] Here, F is the ThT fluorescence at the time t. The constant t0 is the time needed to reach 50% of maximum fluorescence. […] Few of those intermediates nucleate to form a template onto which further intermediates may assembly and the fibrillation proceeds. The lag-time corresponds to the interval in which the critical mass of nucleus is built up and the apparent rate constant is the rate with which the fibril itself is formed. Sample Preparation Samples were prepared freshly before each assay. Each sample composition is described in each example. The pH of the sample was adjusted to the desired value using appropriate amounts of concentrated NaOH and HClO4 or HCl. Thioflavin T was added to the samples from a stock solution in H2O to a final concentration of 1 μM. Sample aliquots of 200 μl were placed in a 96 well microtiter plate (Packard OptiPlate™96, white polystyrene). Usually, four or eight replica of each sample (corresponding to one test condition) were placed in one column of wells. The plate was sealed with Scotch Pad (Qiagen). Incubation and Fluorescence Measurement Incubation at given temperature, shaking and measurement of the ThT fluorescence emission were done in a Fluoroskan Ascent FL fluorescence platereader or Varioskan platereader (Thermo Labsystems). The temperature was adjusted to 37° C. The orbital shaking was adjusted to 960 rpm with an amplitude of 1 mm in all the presented data. Fluorescence measurement was done using excitation through a 444 nm filter and measurement of emission through a 485 nm filter. Each run was initiated by incubating the plate at the assay temperature for 10 min. The plate was measured every 20 minutes for a desired period of time. Between each measurement, the plate was shaken and heated as described. Data Handling The measurement points were saved in Microsoft Excel format for further processing and curve drawing and fitting was performed using GraphPad Prism. The background emission from ThT in the absence of fibrils was negligible. The data points are typically a mean of four or eight samples and shown with standard deviation error bars. Only data obtained in the same experiment (i.e. samples on the same plate) are presented in the same graph ensuring a relative measure of fibrillation between experiments. The data set may be fitted to Eq. […] However, since full sigmodial curves in this case are not always achieved during the measurement time, the degree of fibrillation is expressed as ThT fluorescence tabulated as the mean of the samples and shown with the standard deviation at various time points. Measurement of Initial and Final Concentrations The polypeptide concentration in each of the tested formulations were measured both before application in the ThT fibrillation assay (“Initial”) and after completion of the ThT fibrillation (“After ThT assay”). Concentrations were determined by reverse HPLC methods using a pramlintide standard as a reference. Before measurement after completion 150 μl was collected from each of the replica and transferred to an Eppendorf tube. These were centrifuged at 30000 G for 40 mins. […]

[4] = biological target: T3, human amylin 3(a) receptor (human calcitonin receptor + RAMP-3) in BHK570 cells (Homo sapiens, UniProt O60896+P30988); assay: ASSAY (II)a functional assay, human amylin receptor (CRE luciferase); assay type: cell-based
T3 construct: expressed in transfected cells
Excerpt: 1. Luciferase Assay Outline
Activation of calcitonin and amylin (coexpression of calcitonin receptor and receptor activity modifying proteins (RAMP)) receptors lead to increased intracellular concentrations of cAMP. Consequently, transcription is activated by promoters containing multiple copies of the cAMP response element (CRE). It is thus possible to measure amylin activity by the use of a CRE luciferase reporter gene introduced into BHK cells also expressing calcitonin or amylin receptors.
2. Construction of Calcitonin (a)- and Amylin 3(a)-Receptor/CRE-Luc Cell Line.
The cell line was further transfected with RAMP-3, using standard methods. This turns the calcitonin receptor into an amylin 3(a) receptor. Methotrexate, Neomycin, and Hygromycin are selection markers for luciferase, the calcitonin receptor, and RAMP-3, respectively.
To perform activity assays, BHK calcitonin (a) receptor- or amylin 3(a)-receptor/CRE-luc cells were seeded in white 96 well culture plates at a density of about 20.000 cells/well. […] After incubation overnight at 37° C. and 5% CO2, the growth medium was replaced by 50 μl/well assay medium (DMEM (without phenol red), Glutamax™, 10% FBS, and 10 mM Hepes, pH 7.4). Further, 50 μl/well of standard or sample in assay buffer were added. After 3 hours incubation at 37° C. and 5% CO2, the assay medium with standard or sample were removed and replaced by 100 μl/well PBS. Further, 100 μl/well LucLite™ was added. The plates were sealed and incubated at room temperature for 30 minutes. Finally, luminescence was measured on a TopCounter (Packard) in SPC (single photon counting) mode.

[5] = bistrispropane buffer, pH 6.5, read-out: Solubility pH 6.5 Concentration
[6] = bistrispropane buffer, pH 7.5, read-out: Solubility pH 7.5 Concentration
[7] = bistrispropane buffer, pH 6.0, read-out: Solubility pH 6.0 Concentration
[8] = bistrispropane buffer, pH 7.0, read-out: Solubility pH 7.0 Concentration
[9] = bistrispropane buffer, pH 8.0, read-out: Solubility pH 8.0 Concentration
[10] = glycylglycine buffer, pH 3.0, read-out: Solubility pH 3.0 Concentration
[11] = glycylglycine buffer, pH 4.0, read-out: Solubility pH 4.0 Concentration
[12] = glycylglycine buffer, pH 5.0, read-out: Solubility pH 5.0 Concentration

IC50 (rat calcitonin receptor) [µM] | solubility at 18 h [1, 5] [µM] | solubility at 18 h [1, 6] [µM] | solubility at 18 h [1, 7] [µM] | solubility at 18 h [1, 8] [µM] | solubility at 18 h [1, 9] [µM] | solubility at 18 h [1, 10] [µM] | solubility at 18 h [1, 11] [µM] | solubility at 18 h [1, 12] [µM] | Ratio hCT/hAmylin binding ([2]; Table 5, selectivity, hCTR bind IC50 / hAmylin-R bind IC50) | Ratio hCT/hAmylin binding ([2]; Table 7, human binding selectivity, included for comparison) | ThT pH 4.0 lag time (h) [3] [h] | Ratio hCT/hAmylin funct. ([4]; hCTR funct. EC50 divided by hAmylin-R funct. EC50) | Ratio hCT/hAmylin funct. ([4]; hCTR funct. EC50 over hAmylin-R funct. EC50) | Ratio hCT/hAmylin funct. ([4]; human functional selectivity: hCTR funct. EC50 / hAmylin-R funct. EC50) | SMILES
0.0309 | ≥ 200 | ≥ 200 | ≥ 200 | ≥ 200 | ≥ 200 | ≥ 200 | ≥ 200 | ≥ 200 | – | – | – | – | – | – | CC[C@H](C)[C@H](NC(=O)[C@H](C)NC(=O)CNC(=O)[C@H](Cc1ccccc1)NC(=O)[C@H](CC(N)=O)NC(=O)[C@@H]1CCCN1C(=O)[C@H](CO)NC(=O)[C@H](CO)NC(=O)[C@H](Cc1c[nH]cn1)NC(=O)[C@H](CCCNC(=N)N)NC(=O)[C@H](CC(C)C)NC(=O)[C@H](Cc1ccccc1)NC(=O)[C@H](CC(=O)O)NC(=O)[C@H](C)NC(=O)[C@H](CC(C)C)NC(=O)[C@H](CCCNC(=N)N)NC(=O)[C@H](CCC(N)=O)NC(=O)[C@@H](NC(=O)[C@H](C)NC(=O)[C@@H]1CSSC[C@H](NC(=O)[C@@H](N)CCCCN)C(=O)N[C@@H](CC(N)=O)C(=O)N[C@@H]([C@@H](C)O)C(=O)N[C@@H](C)C(=O)N[C@@H]([C@@H](C)O)C(=O)N1)[C@@H](C)O)C(=O)N1CCC[C@H]1C(=O)N[C@@H](CO)C(=O)N[C@@H](CO)C(=O)N[C@H](C(=O)N[C@@H](CC(N)=O)C(=O)N[C@H](C(=O)NCC(=O)N[C@@H](CO)C(=O)N[C@@H](CCCNC(=N)N)C(=O)N[C@H](C(=O)N[C@@H](Cc1ccc(O)cc1)C(N)=O)[C@@H](C)O)C(C)C)[C@@H](C)O [Example 132]
– | ≥ 200 | ≥ 200 | ≥ 200 | ≥ 200 | ≥ 200 | ≥ 200 | ≥ 200 | ≥ 200 | 8.0 | 8.0 | 19 | 7.4 | 7.4 | 7.4 | CC[C@H](C)[C@H](NC(=O)[C@H](C)NC(=O)CNC(=O)[C@H](Cc1ccccc1)NC(=O)[C@H](CC(N)=O)NC(=O)[C@@H]1CCCN1C(=O)[C@H](CO)NC(=O)[C@H](CO)NC(=O)[C@H](Cc1c[nH]cn1)NC(=O)[C@H](CCCNC(=N)N)NC(=O)[C@H](CC(C)C)NC(=O)[C@H](Cc1ccccc1)NC(=O)[C@H](CCC(=O)O)NC(=O)[C@H](C)NC(=O)[C@H](CC(C)C)NC(=O)[C@H](CCCNC(=N)N)NC(=O)[C@H](CCC(N)=O)NC(=O)[C@@H](NC(=O)[C@H](C)NC(=O)[C@@H]1CSSC[C@H](NC(=O)[C@H](CCCCN)NC(=O)CC[C@H](NC(=O)CCCCCCCCCCCCCCCCCCC(=O)O)C(=O)O)C(=O)N[C@@H](CC(N)=O)C(=O)N[C@@H]([C@@H](C)O)C(=O)N[C@@H](C)C(=O)N[C@@H]([C@@H](C)O)C(=O)N1)[C@@H](C)O)C(=O)N1CCC[C@H]1C(=O)N[C@@H](CO)C(=O)N[C@@H](CO)C(=O)N[C@H](C(=O)N[C@@H](CC(N)=O)C(=O)N[C@H](C(=O)NCC(=O)N[C@@H](CO)C(=O)N[C@@H](CC(N)=O)C(=O)N[C@H](C(=O)N[C@@H](Cc1ccc(O)cc1)C(N)=O)[C@@H](C)O)C(C)C)[C@@H](C)O [Example 9]
